Test [1] concerns activated PBLs. In words: CD95-mediated cell migration / endothelial transmigration of activated PBLs (Boyden chamber). Format: cell-based, human. The settings on record: result in words. The protocol:
FIG. 3. Drugs inhibit CD95-mediated Ca′ response and cell migration. A. Activated PBLs were loaded with FuraPE3-AM (1 μM) and pre-treated for 1 h with non-toxic concentrations of indicated compounds. T-cells were then stimulated with cl-CD95L (100 ng/mL; arrow). Ratio values (R) were normalized to pre-stimulated values (R0) to yield R/R0 values. Data represent means±the SD. B. Left panel: using Boyden chamber assay, cell migration of parental H9 cells and their counterpart lacking CD95 (CD95-KO) was assessed. Right panel: activated PBLs were pre-incubated in the presence or absence of the indicated drugs for 1 hour using non-toxic concentration and the CD95-mediated cell migration was assessed by Boyden chambers. C. Th17 cells were sorted from blood of healthy donors (peripheral blood mononuclear cell). FACS analyses showing the efficiency of Th17 (CCR6^+ CXCR3^−) cell sorting from healthy donors PBMCs. D. Th17 cells were pre-incubated in the presence or absence of the indicated drugs for 1 hour using non-toxic concentration and cell migration was assessed by Boyden chambers. After membrane hydration of Boyden chambers (Millipore, Molsheim, France) containing 8 μm pore membranes, 10^5 cells were added to the top chamber. The bottom chamber was filled with low serum (1%)-containing medium in the presence or absence of cl-CD95L (100 ng/ml). Cells were incubated for 24 h. To quantify invasion, cells were fixed with methanol and stained with Giemsa. Stained cells were then removed from the top-side of the membrane using a cotton-tipped swab and five representative pictures for each insert were taken of the invading cells from the reverse side. For each experiment, invading cells were lysed and absorbance at 560 nm was measured. Membranes (3 μm pore size) of a Boyden chamber were hydrated in sterile D-PBS (Millipore, Molsheim, France). Thereafter, activated T-lymphocytes (10^6) were added to the top chamber on a confluent monolayer of HUVEC in a low serum (1%)-containing medium. The bottom chamber was filled with low serum (1%)-containing medium in presence or absence of 100 ng/ml of cl-CD95L. In experiments using human sera, 500 μl of serum from either healthy donors or SLE patients was added to the lower chamber. Cells were cultured for 24 h at 37° C. in a 5% CO2, humidified incubator. Transmigrated cells were counted in the lower reservoir by flow cytometry using a standard of 2.5×10^4 fluorescent beads (Flow-count, Beckman Coulter).

For test [2], the system named is Th17 cells. In words: CD95-mediated migration / endothelial transmigration of Th17 cells (Boyden chamber). The settings on record: non-toxic concentrations, 1 hour pre-incubation, Boyden chambers. The class given is cell-based, human. How it is done:
FIG. 3. Drugs inhibit CD95-mediated Ca′ response and cell migration. A. Activated PBLs were loaded with FuraPE3-AM (1 μM) and pre-treated for 1 h with non-toxic concentrations of indicated compounds. T-cells were then stimulated with cl-CD95L (100 ng/mL; arrow). Ratio values (R) were normalized to pre-stimulated values (R0) to yield R/R0 values. Data represent means±the SD. B. Left panel: using Boyden chamber assay, cell migration of parental H9 cells and their counterpart lacking CD95 (CD95-KO) was assessed. Right panel: activated PBLs were pre-incubated in the presence or absence of the indicated drugs for 1 hour using non-toxic concentration and the CD95-mediated cell migration was assessed by Boyden chambers. C. Th17 cells were sorted from blood of healthy donors (peripheral blood mononuclear cell). […] D. Th17 cells were pre-incubated in the presence or absence of the indicated drugs for 1 hour using non-toxic concentration and cell migration was assessed by Boyden chambers. […] To quantify invasion, cells were fixed with methanol and stained with Giemsa. […] For each experiment, invading cells were lysed and absorbance at 560 nm was measured. […] Cell sorting efficiency was evaluated by FACS. […] Transmigrated cells were counted in the lower reservoir by flow cytometry using a standard of 2.5×10^4 fluorescent beads (Flow-count, Beckman Coulter).

Turning to `O=C(O)c1cc(-c2ccc(F)cc2F)ccc1O` [diflunisal, 5-(2,4-difluorophenyl)-2-hydroxybenzoic acid], the “effect on endothelial transmigration of PBLs” value in test [1] was “inhibited”. The “effect on endothelial transmigration in Th17 cells” value in test [2] is “abrogated”.

In the case of `CC(C)c1nc(CN(C)C(=O)N[C@H](C(=O)N[C@@H](Cc2ccccc2)C[C@H](O)[C@H](Cc2ccccc2)NC(=O)OCc2cncs2)C(C)C)cs1` [ritonavir, 1,3-thiazol-5-ylmethyl N-[(2S,3S,5S)-3-hydroxy-5-[[(2S)-3-methyl-2-[[methyl-[(2-propan-2-yl-1,3-thiazol-4-yl)methyl]carbamoyl]amino]butanoyl]amino]-1,6-diphenylhexan-2-yl]carbamate], in test [1], the “effect on endothelial transmigration of PBLs” value is recorded as “inhibited”. Also, the “effect on endothelial transmigration in Th17 cells” value in test [2] is “abrogated”.

(Values after patent US20190350907A1, “METHODS AND PHARMACEUTICAL COMPOSITIONS FOR REDUCING CD95- MEDIATED CELL MOTILITY” (INSERM (INSTITUT NATIONAL DE LA SANTÉ ET DE LA RECHERCHE …, priority 2017, published 2019).)
